The assay deals with Tyrosine-protein phosphatase non-receptor type 14 (Homo sapiens) (UniProt Q15678). Kind of assay: inhibition of PTPN14 enzymatic activity – biochemical, human, DiFMUP fluorescence (AID 402). Particulars: recombinant PTPN14, DiFMUP fluorescence phosphatase assay; at 50 µM; hits give high values.
Tyrosine-protein phosphatase non-receptor type 14 (Homo sapiens), sequence (Q15678 whole entry, looked up): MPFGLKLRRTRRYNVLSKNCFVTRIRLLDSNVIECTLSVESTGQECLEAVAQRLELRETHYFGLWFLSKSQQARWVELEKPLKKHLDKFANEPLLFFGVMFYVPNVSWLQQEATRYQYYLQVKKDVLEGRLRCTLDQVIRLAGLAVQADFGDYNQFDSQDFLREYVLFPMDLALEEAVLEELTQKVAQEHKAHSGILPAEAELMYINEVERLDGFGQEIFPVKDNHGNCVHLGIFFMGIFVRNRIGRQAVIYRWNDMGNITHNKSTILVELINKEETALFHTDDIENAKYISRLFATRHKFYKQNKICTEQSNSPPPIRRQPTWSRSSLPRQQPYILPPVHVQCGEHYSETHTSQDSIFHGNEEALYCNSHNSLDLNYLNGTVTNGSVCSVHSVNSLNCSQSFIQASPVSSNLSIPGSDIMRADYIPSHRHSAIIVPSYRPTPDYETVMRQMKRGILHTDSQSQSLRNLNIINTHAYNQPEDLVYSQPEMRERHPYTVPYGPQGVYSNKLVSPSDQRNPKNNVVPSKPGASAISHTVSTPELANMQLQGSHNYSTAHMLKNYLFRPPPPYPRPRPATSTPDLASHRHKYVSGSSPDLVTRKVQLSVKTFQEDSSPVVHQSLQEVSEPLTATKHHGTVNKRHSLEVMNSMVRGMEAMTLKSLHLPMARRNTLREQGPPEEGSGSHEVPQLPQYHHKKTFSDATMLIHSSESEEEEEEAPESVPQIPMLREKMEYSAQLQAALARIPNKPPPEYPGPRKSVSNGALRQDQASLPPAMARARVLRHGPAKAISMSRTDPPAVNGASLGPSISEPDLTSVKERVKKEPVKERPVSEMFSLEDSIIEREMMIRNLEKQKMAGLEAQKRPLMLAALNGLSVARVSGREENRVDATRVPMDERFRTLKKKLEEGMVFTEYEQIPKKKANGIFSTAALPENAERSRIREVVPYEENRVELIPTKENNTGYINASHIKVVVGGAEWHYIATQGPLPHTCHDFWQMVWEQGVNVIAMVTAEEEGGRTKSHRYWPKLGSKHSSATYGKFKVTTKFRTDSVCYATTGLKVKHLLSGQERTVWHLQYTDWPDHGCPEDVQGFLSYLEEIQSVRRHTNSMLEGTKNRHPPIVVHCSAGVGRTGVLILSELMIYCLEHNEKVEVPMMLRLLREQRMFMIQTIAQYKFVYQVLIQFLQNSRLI
The term inhibition denotes how much of the control response was suppressed. Regarding `[NH-]CO.[NH-]CO.[NH-]CO.[NH-]CO.[O]=[V][O][V]=[O]`, the inhibition is 28.5%. Then `OO.OO.[K+].[O]=[V].c1ccc(-c2ccccn2)nc1`, with 72%; and `CCn1nc(-c2ccc(Cl)cc2)nc2c(=O)n(C)c(=O)nc1-2`, with 30.5%; and `O=P(O)(O)Oc1cccc2ccccc12`, with 26%. Under `Cn1nc(-c2ccccc2)nc2c(=O)n(C)c(=O)nc1-2` stands 39.5%; under `O=C(O)c1ccc([O-])cn1.OO.OO.[K+].[K+].[O]=[V]`, 70%. Under `CCn1nc(/C=C/c2ccccc2)[n+](=O)c2c(=O)n(C)c(=O)[nH]c21` stands 33%; under `c1ccc([C@H]2CN3CCSC3=N2)cc1`, 27%.

For the compound `O=C([O-])c1ccccn1.OO.OO.[K+].[K+].[O]=[V]`, the inhibition is 73%. Under `O=C(O)c1ccc(O)cn1.OO.[O]=[V]` stands 62.5%; under `O=P(O)(O)OC(CO)CO`, 27%; under `Cn1nc(/C=C/c2ccccc2)nc2c(=O)n(C)c(=O)nc1-2`, 37%. `CCn1nc(-c2ccccc2)nc2c(=O)n(C)c(=O)nc1-2`: the inhibition is 25.5%. Then `Cn1c(=O)[nH]c2c(c1=O)[n+](=O)c(/C=C/c1ccccc1)nn2C`, with 28%; and `CN(N=O)c1ccc(O)c(O)c1`, with 68%. Under `OO.OO.[K+].[O]=[V].c1cnc2c(c1)ccc1cccnc12` stands 49%; under `CCn1nc(/C=C/c2ccccc2)nc2c(=O)n(C)c(=O)nc1-2`, 24%.

Source of the values: PubChem BioAssay AID402 (SGCOxCompounds, 2006).
